According to US9198886B2, “Use of 2,5-dihydroxybenzene for the treatment of ocular diseases” (priority 2006, dated 2015):

How the values were obtained:
[1] = tested on: human retinal endothelial cells (HREC); assay: Proliferation of human retinal endothelial cells (crystal violet); type: cell-based; settings: 100 μM, 72 hours; DHBS as calcium salt
Method: (§1) Primary cultures of human retinal endothelial cells (HREC) were used. Cells were obtained from Cell Systems (Virginia, USA) and subcultured with CSC complete medium (Cell Systems). Cells at 2 to 5 passages were seeded in 24-well plates at 7,500 cells/well density and, once attached, the cells were treated or not treated (controls) with 2A-5HBS (500 and 1000 μM) or 5A-2HBS (500 and 1000 μM) and they were allowed to proliferate for 72 hours, with daily medium changes. After that, the proliferation of HREC was evaluated by staining the fixed cells with crystal violet. The number of cells is proportional to the amount of retained dye, which was spectrophotometrically determined by measuring absorbance at 595 nm after removing the dye from the cells. Data are expressed as the percentage of absorbance at 595 nm obtained in control conditions. Data were obtained from two different experiments performed in triplicate.
as §1, with “2,5-DHCME (50” for “2A-5HBS (500”, “100” for “1000 μM) or 5A-2HBS (500 and 1000”, “changes. Under the same conditions, other cultures were treated with calcium 2,5-dihydroxybenzenesulfonate (DHBS; 100 μM) for comparison.” for “changes.”

[2] = tested on: experimentally induced asthma; assay: OVA-induced asthma in mice (methacholine Penh, BAL cell count); type: in vivo, Balb/c mice
Method: Effect of potassium 2,5-diacetoxybenzene sulfonate (DABS) on bronchoconstriction in asthmatic mice treated with methacholine. All the mice were exposed to nebulized methacholine (MC; 5 and 20 mg/ml). Bronchoconstriction was determined as the enhanced pause. (Penh), calculated as described in the corresponding example (example 13). As control, the background and the exposure to nebulized saline (0.9% NaCl) are shown. *p<0.05 vs. saline.
Effect of potassium 2,5-diacetoxybenzene sulfonate (DABS) on the inflammatory cell count in the bronchoalveolar lavage (BAL) in asthmatic mice. The data are expressed as mean±SEM of the total number of detected cells in the BAL of the right lung of each animal. *p<0.05, ***p<0.001 vs. group treated with vehicle.
6-9 week old Balb/c mice were used. The ovoalbumin (OVA)/aluminum complex was obtained after dissolving OVA (500 μg/mL) in PBS, and mixing it with an equal volume of 10% aluminum potassium sulfate at pH 6.5 for 1 hour. After centrifuging the pellet (750×g for 5 minutes) the OVA/aluminum pellet was resuspended in distilled water. On day 0, the mice were injected intraperitoneally injected with 100 μg of OVA/aluminum. Eight days later, the mice were anesthetized and exposed to 250 μg of OVA. Later, they were administered 125 μg of OVA on days 15, 18 and 21. […].
The following treatments were administered to the animals: (i.p.) vehicle from day 2, potassium 2,5-diacetoxybencene sulfonate (DABS; 100 mg/kg/day, i.p.) from day 2, DABS (100 mg/kg/day, i.p.) from day 8 and Combivent (20 μg/200 μg in aerosol) on days 20, 21 and 22, the latter as a reference treatment.
In order to evaluate the pulmonary function, the response to methacholine in conscious mice was determined, 24 hours after the last exposure to OVA. The mice were exposed to increasing methacholine concentrations (5 and 20 mg/mL) in the form of aerosol using an ultrasonic nebulizer during 2 minutes. The degree of bronchoconstriction was expressed as the enhanced pause (Penh) which correlates to the mouse air resistance, impedance and pressure within the pleura. The Penh was calculated using the formula Penh=[(Te/Rt−1)×(PEF/PIF)], where Te is expiratory time, Rt is relaxation time, PEF is peak expiratory flow and PIF is peak inspiratory flow×0.67 coefficient.
After measuring airway hyperreactivity, the mice were sacrificed and the bronchoalveolar lavage (BAL) of the right lung was collected. The total number of cells in the BAL fluid was determined.

| Compound | HREC proliferation [1] | methacholine induced bronchoconstriction (Penh) ([2]; 100 mg/kg/day i.p. from day 2) | methacholine induced bronchoconstriction (Penh) ([2]; 100 mg/kg/day i.p. from day 8) | presence of BAL cells in asthmatic mice ([2]; 100 mg/kg/day i.p., vs vehicle) | BAL cell reduction compared with Combivent ([2]; DABS 100 mg/kg/day i.p., Combivent aerosol days 20-22) | increase of the Penh after exposure to MC vs saline ([2]; MC 5 and 20 mg/ml, Combivent 20 μg/200 μg aerosol days 20-22 or DABS 100 mg/kg/day i.p.) |
| --- | --- | --- | --- | --- | --- | --- |
| O=S(=O)(O)c1cc(O)ccc1O [DHBS, 2,5-dihydroxybenzene sulfonic acid] | failed to significantly affect HREC proliferation | – | – | – | – | – |
| CC(=O)Oc1ccc(OC(C)=O)c(S(=O)(=O)[O-])c1.[K+] [DABS, potassium 2,5-diacetoxybenzene sulfonate] | – | completely prevented | completely prevented | significantly reduced | even more than the treatment with Combivent | do not show a significant increase of the Penh |
